This note sets out measurements from publication PMC5609127 (ACS Chemical Neuroscience, 2017).

As a reminder, the EC50 is the concentration that produces a half-maximal response. Read a high EC50 as weaker potency. The term IC50 denotes the concentration that gives 50% inhibition. A higher IC50 goes with a need for much substance.

In one assay the target is T1, RXRα–RXRα homodimer (Homo sapiens, UniProt P19793).
T1 sequence (P19793 1-462) 1: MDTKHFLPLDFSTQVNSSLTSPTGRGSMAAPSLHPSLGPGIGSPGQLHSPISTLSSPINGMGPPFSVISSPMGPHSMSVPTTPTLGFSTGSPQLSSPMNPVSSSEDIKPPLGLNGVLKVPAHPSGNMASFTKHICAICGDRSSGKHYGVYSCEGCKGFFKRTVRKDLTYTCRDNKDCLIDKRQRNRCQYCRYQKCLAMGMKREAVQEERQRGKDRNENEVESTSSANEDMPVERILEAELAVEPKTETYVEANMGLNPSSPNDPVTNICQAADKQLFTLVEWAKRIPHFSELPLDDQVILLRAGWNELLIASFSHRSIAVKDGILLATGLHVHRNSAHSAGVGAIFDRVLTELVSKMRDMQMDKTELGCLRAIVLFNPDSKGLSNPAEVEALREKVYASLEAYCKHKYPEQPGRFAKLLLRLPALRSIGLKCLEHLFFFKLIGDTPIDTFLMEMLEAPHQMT
T1 sequence (P19793 1-462) 2: T1 sequence (P19793 1-462) 1
Put plainly: BRET2 homodimerization assay. Background: Bioluminescence resonance energy transfer reports proximity on the nanometre scale.

Assay [1] concerns the target T2, RXRα (Homo sapiens, UniProt P19793).
T2 sequence (P19793 1-462): T1 sequence (P19793 1-462) 1
Put plainly: Mammalian two-hybrid. The assay is classed as cell-based. Particulars: for agonist character in M2H assay: agonist format.

For assay [2], the target named is T3, RXRα (Homo sapiens, UniProt P19793).
T3 sequence (P19793 227-458 limits assumed): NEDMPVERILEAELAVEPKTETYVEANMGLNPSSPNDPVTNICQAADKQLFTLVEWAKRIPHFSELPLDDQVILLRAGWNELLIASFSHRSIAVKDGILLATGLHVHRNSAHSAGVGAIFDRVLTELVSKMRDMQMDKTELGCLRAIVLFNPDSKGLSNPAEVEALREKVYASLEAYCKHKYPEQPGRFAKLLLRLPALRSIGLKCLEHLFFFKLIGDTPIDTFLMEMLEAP
Nature of the assay: Fluorescence polarization. The assay is classed as biochemical. Particulars: for agonist character in FP assay: agonist format. (Fluorescence polarisation rises when a labelled molecule tumbles more slowly, as on binding a larger partner.)

The next assay concerns the target RXRα–NURR1 heterodimer (Homo sapiens, UniProt P19793). Put plainly: BRET2 heterodimerization assay. Particulars: for NURR1–RXRα vs RXRα–RXRα selectivity: BRET2 potency ratio heterodimer vs homodimer.
In assay [3] the target is T2, RXRα. Nature of the assay: M2H luciferase competition assay against LG100268. The assay is classed as cell-based. To be noted: ligand in the 10–40 μM range after stimulation with LG100268 (10 nM).
For assay [4], the target named is T3, RXRα. Put plainly: Fluorescence polarization competition assay against LG100268. The assay is classed as biochemical. Particulars: for antagonist character in FP competition assay: competition against LG100268 (50 nM).
Setting [5] is: FP/EC50, His6-RXRα-LBD 1 μM, fluorescein-labeled D22 coactivator peptide 0.1 μM.

Structures are written as SMILES.

Sequence of RXRα–NURR1 heterodimer (P43354 whole entry partner, one chain of several): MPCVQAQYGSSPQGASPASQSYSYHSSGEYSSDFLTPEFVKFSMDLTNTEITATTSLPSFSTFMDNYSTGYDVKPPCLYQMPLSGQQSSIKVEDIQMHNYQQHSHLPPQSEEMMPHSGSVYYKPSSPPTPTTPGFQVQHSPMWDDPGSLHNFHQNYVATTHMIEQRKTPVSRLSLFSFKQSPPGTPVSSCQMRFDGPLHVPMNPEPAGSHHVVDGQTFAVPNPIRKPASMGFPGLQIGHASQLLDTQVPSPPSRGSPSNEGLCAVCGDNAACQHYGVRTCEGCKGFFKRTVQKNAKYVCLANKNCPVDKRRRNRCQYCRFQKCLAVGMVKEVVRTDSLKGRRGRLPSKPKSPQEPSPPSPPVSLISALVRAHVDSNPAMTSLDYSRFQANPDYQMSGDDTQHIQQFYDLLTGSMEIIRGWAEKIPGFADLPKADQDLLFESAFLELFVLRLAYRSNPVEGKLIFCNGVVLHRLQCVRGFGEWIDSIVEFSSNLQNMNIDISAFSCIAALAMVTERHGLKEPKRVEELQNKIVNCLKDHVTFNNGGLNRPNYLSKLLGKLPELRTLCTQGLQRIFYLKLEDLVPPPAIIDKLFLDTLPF

For the compound `Cc1c(-c2ccccc2)cccc1-c1cc(/C=C/C(=O)O)ccc1O` [ligand 6, (E)-3-(6-Hydroxy-2′-methyl-[1,1′:3′,1″-terphenyl]-3-yl)acrylic Acid], the EC50 is 158 nM on RXRα–RXRα homodimer; above 2500 nM on RXRα [1]; 9900 ± 2500 nM on RXRα [2] (setting [5]); 1000 to 10000 nM on RXRα [2] (potency range in FP assay); 794 nM at RXRα–NURR1 heterodimer. Further, the “agonist character in M2H assay” value on RXRα [1] is “full agonism”. Also, on RXRα [2], the “agonist character in FP assay” value was “full agonism”. Besides, the “NURR1–RXRα vs RXRα–RXRα selectivity” value at RXRα–NURR1 heterodimer worked out at 0.2 fold.

As to `CC(C)c1cccc(-c2cc(/C=C/C(=O)O)ccc2O)c1` [ligand 4, (E)-3-(6-Hydroxy-3′-isopropyl-[1,1′-biphenyl]-3-yl)acrylic Acid], the concentration for a half-maximal effect (EC50) on RXRα [1] was 5.8 ± 1.8 nM; at RXRα [2] (setting [5]), 89 ± 7 nM; on RXRα–NURR1 heterodimer, 0.794 nM. The “NURR1–RXRα vs RXRα–RXRα selectivity” value on RXRα–NURR1 heterodimer is 25 fold.

In the case of `C=CCc1ccc(OCCCCCC)c(-c2cc(/C=C/C(=O)O)ccc2O)c1` [ligand 10, (E)-3-(5′-Allyl-2′-(hexyloxy)-6-hydroxy-[1,1′-biphenyl]-3-yl)acrylic Acid], on RXRα–RXRα homodimer, the EC50 was above 10000 nM and the “activity in BRET2 assay (RXRα–RXRα)” value is “did not show appreciable activity”. Further, on RXRα–NURR1 heterodimer, the EC50 is above 10000 nM and the “activity in BRET2 assay (RXRα–NURR1)” value is listed as “did not show appreciable activity”. Moreover, at RXRα [3], the “effect in M2H competition assay” value is “clear decrease in luciferase expression”. In addition, on RXRα [4], the half-inhibitory concentration (IC50) is 46900 ± 5900 nM and the “antagonist character in FP competition assay” value is given as “full antagonism”.

Turning to `O=C(O)/C=C/c1ccc(O)c(-c2cccc(-c3ccccc3)c2)c1` [ligand 2, (E)-3-(6-Hydroxy-[1,1′:3′,1″-terphenyl]-3-yl)acrylic Acid], the EC50 on RXRα–RXRα homodimer is 31.6 nM; at RXRα [1], 85 ± 9 nM; at RXRα [2] (setting [5]), 140 ± 23 nM; on RXRα–NURR1 heterodimer, 3.16 nM. For the same compound, the “NURR1–RXRα vs RXRα–RXRα selectivity” value on RXRα–NURR1 heterodimer was found to be 10 fold.

With `C=CCc1ccc(OCCC)c(-c2cc(/C=C/C(=O)O)ccc2O)c1` [ligand 9, (E)-3-(5′-Allyl-6-hydroxy-2′-propoxy-[1,1′-biphenyl]-3-yl)acrylic Acid], the EC50 at RXRα–RXRα homodimer was 20 nM. Further, the “bias toward RXRα homodimers over RXRα–NURR1 heterodimers (factor)” value on RXRα–RXRα homodimer (BRET2) is recorded as 10. Also, at RXRα [2], the “agonist character in FP assay” value is listed as “partial agonism”. At RXRα–NURR1 heterodimer, the EC50 was 158 nM and the “NURR1–RXRα vs RXRα–RXRα selectivity” value is 0.1 fold. The “effect in M2H competition assay” value at RXRα [3] is “clear decrease in luciferase expression”. Moreover, at RXRα [4], the IC50 came out at 48500 ± 4600 nM and the “antagonist character in FP competition assay” value was “partial antagonism”.

In the case of `CCCc1cccc(-c2cc(/C=C/C(=O)O)ccc2O)c1` [ligand 5, (E)-3-(6-Hydroxy-3′-propyl-[1,1′-biphenyl]-3-yl)acrylic Acid], the EC50 is 100 nM on RXRα–RXRα homodimer, 18 ± 10 nM on RXRα [1], 170 ± 80 nM on RXRα [2] (setting [5]) and 5.01 nM on RXRα–NURR1 heterodimer. In addition, at RXRα–NURR1 heterodimer, the “NURR1–RXRα vs RXRα–RXRα selectivity” value was found to be 20 fold.

For the compound `O=C(O)/C=C/c1ccc(O)c(-c2cccc(Cc3ccccc3)c2)c1` [ligand 3, (E)-3-(3′-Benzyl-6-hydroxy-[1,1′-biphenyl]-3-yl)acrylic Acid], the EC50 on RXRα–RXRα homodimer was 20 nM; at RXRα [1], 92 ± 36 nM; at RXRα [2] (setting [5]), 142 ± 9 nM; on RXRα–NURR1 heterodimer it was 2.51 nM. Also, on RXRα–NURR1 heterodimer, the “NURR1–RXRα vs RXRα–RXRα selectivity” value came to 8 fold.

As to `Cc1ccc(-c2ccccc2)cc1-c1cc(/C=C/C(=O)O)ccc1O` [ligand 7, (E)-3-(6-Hydroxy-6′-methyl-[1,1′:3′,1″-terphenyl]-3-yl)acrylic Acid], the EC50 on RXRα–RXRα homodimer is 31.6 nM; at RXRα [2] (setting [5]) it was 1020 ± 60 nM; at RXRα [2] (potency range in FP assay) it was 1000 to 10000 nM; on RXRα–NURR1 heterodimer it was 79.4 nM. Besides, the “agonist character in M2H assay” value at RXRα [1] is reported as “full agonism”. The “agonist character in FP assay” value at RXRα [2] is “full agonism”. Also, the “NURR1–RXRα vs RXRα–RXRα selectivity” value on RXRα–NURR1 heterodimer turned out to be 0.4 fold.
